Results: patent publication US7465741B2, “C-substituted tricyclic isoxazoline derivatives and their use as anti-depressants” (Janssen Pharmaceutica N.V., priority 2002, dated 2008)
Where a name gives a salt, the structure may show the parent alone.

Experiments:
hα2A receptor = biological target: T1, hα2A receptor (Homo sapiens, UniProt P08913); test: Radioligand binding experiment for hα2A receptor ([3H]-raulwolscine, CHO cell membranes); settings: [3H]-raulwolscine 1 nM, membranes of CHO cells transfected with human α2A receptor; read-out: pIC50 hα2A (converted)
T1 construct: expressed in transfected cells; host or cells: CHO cells
T1 sequence (P08913 1-465): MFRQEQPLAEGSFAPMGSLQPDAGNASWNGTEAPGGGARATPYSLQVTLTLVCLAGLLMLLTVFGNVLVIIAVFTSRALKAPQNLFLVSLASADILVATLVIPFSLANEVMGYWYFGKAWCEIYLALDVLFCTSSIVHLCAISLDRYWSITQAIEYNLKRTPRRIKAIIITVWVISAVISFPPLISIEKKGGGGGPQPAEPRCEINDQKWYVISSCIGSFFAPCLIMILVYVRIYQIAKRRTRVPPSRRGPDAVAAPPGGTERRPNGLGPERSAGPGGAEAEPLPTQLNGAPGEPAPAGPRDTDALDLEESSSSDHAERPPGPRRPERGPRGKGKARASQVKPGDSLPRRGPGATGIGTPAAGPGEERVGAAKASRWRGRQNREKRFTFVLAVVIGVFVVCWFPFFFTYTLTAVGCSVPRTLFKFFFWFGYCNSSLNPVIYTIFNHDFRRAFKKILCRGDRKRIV
Description: (§1) The interaction of the compounds according to Formula (I) with hα2-receptors and h5-HT-transporters was assessed in in vitro radioligand binding experiments. In general, a low concentration of a radioligand with a high binding affinity for a particular receptor or transporter is incubated with a sample of a tissue preparation enriched in a particular receptor or transporter or with a preparation of cells expressing cloned human receptors in a buffered medium. During the incubation, the radioligand binds to the receptor or transporter. When equilibrium of binding is reached, the receptor bound radioactivity is separated from the non-bound radioactivity, and the receptor- or transporter-bound activity is counted. The interaction of the test compounds with the receptor is assessed in competition binding experiments. Various concentrations of the test compound are added to the incubation mixture containing the receptor- or transporter preparation and the radioligand. The test compound in proportion to its binding affinity and its concentration inhibits binding of the radioligand. The radioligand used for hα2A, hα2B and hα2C receptor binding was [^3H]-raulwolscine and for the h5-HT transporter was [^3H]paroxetine.
(§2) CHO cells, stabile transfected with human adrenergic-α2A-, —α2B or α2C receptor cDNA, were cultured in Dulbecco's Modified Eagle's Medium (DMEM)/Nutrient mixture Ham's F12 (ratio 1:1)(Gibco, Gent-Belgium) supplemented with 10% heat inactivated fetal calf serum (Life Technologies, Merelbeke-Belgium) and antibiotics (100 IU/ml penicillin G, 100 μg/ml streptomycin sulphate, 110 μg/ml pyruvic acid and 100 μg/ml L-glutamine). One day before collection, cells were induced with 5 mM sodiumbutyrate. Upon 80-90% of confluence, cells were scraped in phosphate buffered saline without Ca^2+ and Mg^2+ and collected by centrifugation at 1500×g for 10 min. The cells were homogenised in Tris-HCl 50 mM using an Ultraturrax homogenizer and centrifuged for 10 min at 23,500×g. The pellet was washed once by resuspension and rehomogenization and the final pellet was resuspended in Tris-HCl, divided in 1 ml aliquots and stored at −70° C.
(§3) Membranes were thawed and re-homogenized in incubation buffer (glycylglycine 25 mM, pH 8.0). In a total volume of 500 μl, 2-10 μg protein was incubated with [^3H]raulwolscine (NET-722) (New England Nuclear, USA) (1 nM final concentration) with or without competitor for 60 min at 25° C. followed by rapid filtration over GF/B filter using a Filtermate196 harvester (Packard, Meriden, Conn.). Filters were rinsed extensively with ice-cold rinsing buffer (Tris-HCl 50 mM pH 7.4). Filter-bound radioactivity was determined by scintillation counting in a Topcount (Packard, Meriden, Conn.) and results were expressed as counts per minute (cpm). Non-specific binding was determined in the presence of 1 μM oxymetazoline for hα2A- and hα2B receptors and 1 μM spiroxatrine for hα2C receptors.
(§4) Data from assays in the presence of compound were calculated as a percentage of total binding measured in the absence of test compound. Inhibition curves, plotting percent of total binding versus the log value of the concentration of the test compound, were automatically generated, and sigmoidal inhibition curves were fitted using non-linear regression. The pIC50 values of test compounds were derived from individual curves.

hα2B receptor = biological target: T2, hα2B receptor (Homo sapiens, UniProt P18089); test: Radioligand binding experiment for hα2B receptor ([3H]-raulwolscine, CHO cell membranes); settings: [3H]-raulwolscine 1 nM, membranes of CHO cells transfected with human α2B receptor; read-out: pIC50 hα2B (converted)
T2 construct: expressed in transfected cells; host or cells: CHO cells
T2 sequence (P18089 1-450): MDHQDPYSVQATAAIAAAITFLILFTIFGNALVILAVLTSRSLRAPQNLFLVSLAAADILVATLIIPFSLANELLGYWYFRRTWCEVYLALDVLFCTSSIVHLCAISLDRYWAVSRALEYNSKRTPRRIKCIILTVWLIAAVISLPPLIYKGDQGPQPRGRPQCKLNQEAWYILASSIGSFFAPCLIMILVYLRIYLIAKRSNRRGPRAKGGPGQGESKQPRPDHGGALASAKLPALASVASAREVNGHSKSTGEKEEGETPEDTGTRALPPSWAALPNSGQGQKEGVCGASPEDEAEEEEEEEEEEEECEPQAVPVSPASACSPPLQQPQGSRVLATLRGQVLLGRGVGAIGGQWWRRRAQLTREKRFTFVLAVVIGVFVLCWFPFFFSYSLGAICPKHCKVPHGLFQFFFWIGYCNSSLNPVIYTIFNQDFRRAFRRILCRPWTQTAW
Description: as §1, §2, §3, §4

hα2C receptor = biological target: T3, hα2C receptor (Homo sapiens, UniProt P18825); test: Radioligand binding experiment for hα2C receptor ([3H]-raulwolscine, CHO cell membranes); settings: [3H]-raulwolscine 1 nM, membranes of CHO cells transfected with human α2C receptor; read-out: pIC50 hα2C (converted)
T3 construct: expressed in transfected cells; host or cells: CHO cells
T3 sequence (P18825 1-462): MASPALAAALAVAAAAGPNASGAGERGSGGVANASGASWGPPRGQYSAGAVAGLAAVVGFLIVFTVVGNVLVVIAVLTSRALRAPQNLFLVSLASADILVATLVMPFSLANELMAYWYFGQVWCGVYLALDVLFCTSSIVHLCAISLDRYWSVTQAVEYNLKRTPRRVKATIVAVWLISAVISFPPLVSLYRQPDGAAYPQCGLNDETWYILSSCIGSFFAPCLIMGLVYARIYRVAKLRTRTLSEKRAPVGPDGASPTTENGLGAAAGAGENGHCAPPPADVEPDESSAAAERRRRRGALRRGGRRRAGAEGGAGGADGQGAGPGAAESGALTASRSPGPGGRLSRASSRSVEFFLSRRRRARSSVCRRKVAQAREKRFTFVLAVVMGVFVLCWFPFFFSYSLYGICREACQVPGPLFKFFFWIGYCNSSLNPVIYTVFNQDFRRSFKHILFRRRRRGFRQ
Description: as §1, §2, §3, §4

h5-HT transporter = biological target: T4, h5-HT transporter (Homo sapiens, UniProt P31645); test: Radioligand binding experiment for 5-HT transporter ([3H]paroxetine, human platelet membranes); settings: [3H]paroxetine 0.5 nM, read-out: pIC50 h5HTT (converted)
T4 construct: Human platelet membranes (Oceanix Biosciences Corporation, Hanover, Md., USA) were thawed; tissue Oceanix Biosciences Corporation; host or cells: human platelet membranes
T4 sequence (P31645 whole entry): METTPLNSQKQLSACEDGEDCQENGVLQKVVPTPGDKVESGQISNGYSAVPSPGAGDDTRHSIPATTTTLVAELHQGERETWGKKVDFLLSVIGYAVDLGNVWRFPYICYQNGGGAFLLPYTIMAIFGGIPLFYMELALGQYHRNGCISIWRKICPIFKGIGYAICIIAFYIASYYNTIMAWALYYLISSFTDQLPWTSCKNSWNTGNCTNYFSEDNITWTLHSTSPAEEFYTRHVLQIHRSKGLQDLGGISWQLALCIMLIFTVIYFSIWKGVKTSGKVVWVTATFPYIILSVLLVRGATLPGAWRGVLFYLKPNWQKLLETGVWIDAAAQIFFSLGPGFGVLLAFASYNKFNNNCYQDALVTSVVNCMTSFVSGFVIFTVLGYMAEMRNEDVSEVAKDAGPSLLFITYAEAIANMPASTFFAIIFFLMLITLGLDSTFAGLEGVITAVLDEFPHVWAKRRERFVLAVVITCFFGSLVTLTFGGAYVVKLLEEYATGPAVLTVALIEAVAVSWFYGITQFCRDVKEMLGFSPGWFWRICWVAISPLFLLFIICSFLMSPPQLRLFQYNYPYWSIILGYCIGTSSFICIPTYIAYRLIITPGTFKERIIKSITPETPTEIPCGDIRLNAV
Description: as §1
Human platelet membranes (Oceanix Biosciences Corporation, Hanover, Md., USA) were thawed, diluted in buffer (Tris-HCl 50 mM, 120 mM NaCl and 5 mM KCl) and quickly (max 3 s) homogenised with an Ultraturrax homogenizer. In a total volume of 250 μL, 50-100 μg protein was incubated with [^3H]paroxetine (NET-869) (New England Nuclear, USA) (0.5 nM final concentration) with or without competitor for 60 min at 25° C. Incubation was stopped by rapid filtration of the incubation mixture over GF/B filters, pre-wetted with 0.1% polyethyleneamine, using a Filtermate 196 harvester (Packard, Meriden, Conn.). Filters were rinsed extensively with ice-cold buffer and radioactivity on the filters was counted in a Topcount liquid scintillation counter (Packard, Meriden, Conn.). Data were expressed as cpm. Imipramine (at 1 μM final concentration) was used to determine the non-specific binding.
as §4

CC(=Cc1ccccc1)CN1CCN(CC2ON=C3c4ccc(CN(C)CCO)cc4OCC32)CC1 (stereo not shown) (as salt: HCl) [Compound 9, 2-(Methyl-{3-[4-(2-methyl-3-phenyl-allyl)-piperazin-1-ylmethyl]-3a,4-dihydro-3H -chromeno[4,3-c]isoxazol-7-ylmethyl}-amino)-ethanol]
melting point: 228.6 to 252.1 °C

COc1cc2c(cc1CN1CCOCC1)OCC1C2=NOC1CN1CCN(CC(C)=Cc2ccccc2)CC1 (single isomer, unassigned) [Compound 20]
IC50 (hα2A receptor): 398 nM
IC50 (hα2B receptor): 20 nM
IC50 (hα2C receptor): 50.1 nM
IC50 (h5-HT transporter): 20 nM
melting point: 66.5 to 89.8 °C

COc1cc2c(cc1CN1CCOCC1)OCC1C2=NOC1CN1CCN(CC(C)=Cc2ccccc2)CC1 (single isomer, unassigned) [Compound 21]
IC50 (hα2A receptor): 15.8 nM
IC50 (hα2B receptor): 6.31 nM
IC50 (hα2C receptor): 3.16 nM
IC50 (h5-HT transporter): 10 nM
melting point: 56.1 to 68 °C

CC(=Cc1ccccc1)CN1CCN(CC2ON=C3c4ccc(CN(C)CCO)cc4OCC32)CC1 (stereo not shown) [Compound 9, 2-(Methyl-{3-[4-(2-methyl-3-phenyl-allyl)-piperazin-1-ylmethyl]-3a,4-dihydro-3H -chromeno[4,3-c]isoxazol-7-ylmethyl}-amino)-ethanol]
IC50 (hα2A receptor): 1.26 nM
IC50 (hα2B receptor): 0.501 nM
IC50 (hα2C receptor): 0.2 nM
IC50 (h5-HT transporter): 25.1 nM

COc1cc2c(cc1CN1CCOCC1)OCC1C2=NOC1CN1CCN(C/C(C)=C/c2ccccc2)CC1 (stereo not shown) [Compound 10, 8-Methoxy-3-[4-(2-methyl-3-phenyl-allyl)-piperazin-1-ylmethyl]-7-morpholin-4-ylmethyl-3a,4-dihydro-3H-chromeno[4,3-c]isoxazole]
IC50 (hα2A receptor): 6.31 nM
IC50 (hα2B receptor): 3.98 nM
IC50 (hα2C receptor): 0.316 nM
IC50 (h5-HT transporter): 25.1 nM

C/C(=C\c1ccccc1)CN1CCN(CC2ON=C3c4ccc(C#N)cc4OCC32)CC1 (stereo not shown) [Compound 13, 3-[4-(2-Methyl-3-phenyl-allyl)-piperazin-1-ylmethyl]-3a,4-dihydro-3H -chromeno[4,3-c]isoxazole-7-carbonitrile]
IC50 (hα2A receptor): 1.58 nM
IC50 (hα2C receptor): 0.501 nM
IC50 (h5-HT transporter): 126 nM
melting point: 132.2 to 146.7 °C

COc1cc2c(cc1-c1ccc(C(C)=O)s1)OCC1C2=NOC1CN1CCN(CC(C)=Cc2ccccc2)CC1 (stereo not shown) [Compound 18, 1-(5-{8-Methoxy-3-[4-(2-methyl-3-phenyl-allyl)-piperazin-1-ylmethyl]-3a,4-dihydro-3H-chromeno[4,3-c]isoxazol-7-yl}-thiophen-2-yl)-ethanone]
IC50 (hα2A receptor): 15.8 nM
IC50 (hα2C receptor): 10 nM
melting point: 150.1 to 171.8 °C

CCN(Cc1cc2c(cc1OC)C1=NOC(CN3CCN(CC(C)=Cc4ccc(F)cc4)CC3)C1CO2)C(C)C (stereo not shown) [Compound 24]
IC50 (hα2A receptor): 39.8 nM
IC50 (hα2B receptor): 12.6 nM
IC50 (hα2C receptor): 5.01 nM
IC50 (h5-HT transporter): 3.98 nM

COc1cc2c(cc1CN1CCC(C)CC1)OCC1C2=NOC1CN1CCN(CC(C)=Cc2ccc(F)cc2)CC1 (stereo not shown) [Compound 25]
IC50 (hα2A receptor): 6.31 nM
IC50 (hα2B receptor): 2.51 nM
IC50 (hα2C receptor): 0.794 nM
IC50 (h5-HT transporter): 31.6 nM
